{"source": "patent US7303618B1", "about": "“Ink for ink-jet recording” (Brother Kogyo Kabushiki Kaisha, priority 2006, dated 2007)", "test": "Ozone resistance (OD value reduction of printed patch)", "format": "physicochemical", "conditions": "discussion of Table 1", "description": "Each of the inks for ink-jet recording was filled into a desired ink cartridge, and the ink cartridge was attached to a digital multifunction device equipped with an ink-jet printer (DCP-110C, product of Brother Industries, Ltd.) to perform the printing evaluation. First, as an evaluation sample, a gradation sample of each cyan ink was printed on photo glossy paper (Model No. BP60GLA, product of Brother Industries, Ltd.) to prepare a patch having an initial OD value of 1.0. This patch was then subjected to an ozone resistance evaluation test using an Ozone Weather Meter OMS-H (product of Suga Test Instruments Co., Ltd.). That is, the patch was left to stand under the conditions of an ozone concentration of 1 ppm, a chamber temperature of 24° C. and a chamber humidity of 60% RH for 40 hours. Specifically, the color patch printed with each cyan ink and having an OD value of 1.0 before the test was then measured for an OD value after the ozone resistance evaluation test was completed. The OD value was measured by means of a Spectrolino (product of Gretag Macbeth) (light source: D65; viewing angle: 2°; Status A). […]\nThe obtained OD value reduction ratio was then evaluated according to the criteria below. When the OD value reduction ratio is less than 30%, the ozone resistance performance for general use is determined to be at an acceptable level. […]"}
{"substance": "C. I. Direct Blue 199 [Dye (2-C)]", "values": [{"measurement": "Ozone resistance (in words)", "result": "poor"}]}
